# Experimental data from patent US20240197761A1, “FUCOSYLATION AND IMMUNE MODULATION IN CANCER” (H. LEE MOFFITT CANCER CENTER AND RESEARCH INSTITUTE, INC., priority 2021, published 2024).
# Legend:
# SM1 tumors = assay: Anti-PD-1 mouse model, SM1: tumor growth and flow cytometric profiling of tumors and draining lymph nodes (Table 2); type: in vivo, C57BL/6 mice
# Description: FIGS. 21A and 21B Administration of combination L-fucose and anti-PD-1 suppresses tumors and increases intra-tumoral CD4+T central and effector memory cells (a) Volumetric growth curves for SW1 tumors in C3H/HeN mice (left) and SM1 tumors in C57BL/6 mice (right) fed L-fucose (LF) and treated with PBS (control) or anti-PD-1. (concurrent initiation of LF anti-PD1 (▾)). The tumor growth curves are means±SEM from ≥7 mice per group. (b) Volumetric growth curves for SM1 tumors in C57BL/6 mice fed ±L-fucose (LF) and treated with PBS (control) or anti-PD-1 (PD-1). (concurrent initiation of LF±PD1 (▾)). The tumor growth curves are means±SEM from ≥7 mice per group. *=p<0.05. At Day 7 (prior to administration of LF or PD1), Day 21 (endpoint for tumors of control-treated mice), Day 31 (endpoint for tumors of LF-treated mice), Day 63 (endpoint for tumors of PD1-treated mice), the primary tumors (Tumor) and draining lymph nodes (LN) of 4-5 mice per treatment group were analyzed by flow cytometry for intratumor levels of CD4+ and CD8+T subpopulations (naive/terminal, stem central/central/effector memory) and dendritic cell (DC) subpopulations (cDC1, cDC2, and monocyte-derived DC (moDC)) as in FIG. 15. Proportions of CD4+, CD8+, and DC subpopulations in each organ at each timepoints are represented by the color-coded pie charts (each pie chart represents 4-5 mice). Absolute numbers of the subpopulations per […] of tumor/tissue homogenate at each timepoint are represented in the color-coded column charts.
# Tumors of SW1 or SM1 melanoma cells from […] or C57BL/6 mice, respectively) were digested using 1× tumor digest buffer (0.5 mg/mL Collagenase I, 0.5 mg/mL Collagenase IV, 0.25 mg/mL Hyalyronidase V, 0.1 mg/mL DNAse I in HBSS (Millipore Sigma (St. Louis, MO)). Tumors were homogenized using the Miltenyi MACs dissociator. Red blood cells were lysed using ACK lysis buffer (Life Technologies, (Grand Island, NY)). Tumor homogenate cells were counted using a standard hemocytometer.
# Total TILs were gated first to single cells (based on forward scatter height vs width, followed by side scatter height vs. width). Live cells were gated from the Zombie negative population from the population above. TILs were gated based on splenocyte size from a control spleen. Individual immune subpopulations were sub-gated from the total TIL population using the following staining criteria: CD3+ for CD3+ T cells; CD3+/CD4+/CD8− for CD4+T cells; CD3+/CD4−/CD8+ for CD8+ T cells, CD11c+/CD11b+ for DCs; either NK1.1 (for C57/BL6 mice) or DX5 (for C3H/HeJ) for NK cells; CD11b+/GR1+ for MDSC-like cells; and F4/80+ for macrophages. Single-cell suspensions from tumor and spleen tissue were stained with Live/Dead Zombie NIR (Biolegend, (San Diego, CA)) at 1:1,000 in PBS for 20 min. Cell suspensions were spun down and stained with the following with antibodies at 0.5 μg/ml per antibody: APC anti-mouse CD3, Pacific Blue anti-mouse CD4, BV785 anti-mouse CD8, PerCP anti-mouse CD25, FITC anti-mouse F4/80, PeCy7 anti-mouse CD11c, PE anti-mouse NK1.1 or PE anti-mouse DX5, and PerCP-Cy5.5 anti-mouse CD11 b. After staining, the cells were washed and fixed (2% formaldehyde), followed by another wash and flow cytometric analysis. The compensation controls were prepared using 0.5 μg/mL of each antibody with UltraComp eBeads, (ThermoFisher Scientific (Waltham, MA)). All samples were subject to flow cytometric profiling using a LSR Flow Cytometer (BD Biosciences (San Jose, CA)) and analysis as indicated using FlowJo software (BD Biosciences (San Jose, CA)).
# SW1 or SM1 mouse melanoma cells were injected into syngeneic C3H/HeN female or C57BL/6 male mice, respectively. After approximately 7 days, when the mice tumors reached −150 mm^3, the mice were either supplemented with or without 100 mM L-fucose (Biosynth (Oak Terrace, IL)) via drinking water, which was provided ad libitum. […]
# [1] = system: mouse bone marrow-derived myeloid progenitors; assay: Myeloid phenotype profiling (M-MDSC, PMN-MDSC, moDC) of bone marrow-derived myeloid progenitors; type: cell-based; conditions: ± GM/G-CSF, average values from 12 mice
# Description: Next, we investigated the effect of L-fuc on NO production of bone marrow derived MDSCs (FIGS. 8A and 8B). We observed that L-fuc abrogated NO production in all cases. […] We also wanted to look at how L-fuc treatment effected the expression of immunosuppression genes (FIG. 9). We assessed the expression of key MDSC biology-related genes at 24 or 72 hours after in initial L-fuc treatment of the cells. Generally, we observed reductions in ARGI, PARP, and CHOP expression. In contrast we observed upregulation of STAT1. To further assess how L-fuc/fucosylation affects myeloid phenotype, we modulated fucosylation using DMSO (control), 2-fluoro-fucose (2FIF, fucosylation inhibitor), or L-fuc in mouse bone marrow-derived myeloid progenitors treated ±GM/G-CSF (FIG. 10). We profiled changes In M-MDSC vs. PMN-IMDSC, as well as moDC, as we observed immunostimulatory activity. […] Shown are the average values irom 12 mice. We also observed that L-fucose alters TLR profiles of dendritic cells (FIG. 11).
compound,measurement,setting,value
C[C@H](O)[C@@H](O)[C@@H](O)[C@H](O)C=O [L-fucose],"CD4 central memory, average # of cells","SM1 tumors; Day 21, lymph nodes",592.12 per 10^6 cells of total tumor
same,"CD4 effector memory, average # of cells","SM1 tumors; Day 21, lymph nodes",1155.12 per 10^6 cells of total tumor
same,"CD4 naïve, average # of cells","SM1 tumors; Day 21, lymph nodes",24832.36 per 10^6 cells of total tumor
same,"CD4 stem central memory, average # of cells","SM1 tumors; Day 21, lymph nodes",512.17 per 10^6 cells of total tumor
same,"CD8 central memory, average # of cells","SM1 tumors; Day 21, lymph nodes",1017.54 per 10^6 cells of total tumor
same,"CD8 effector memory, average # of cells","SM1 tumors; Day 21, lymph nodes",4093.80 per 10^6 cells of total tumor
same,"CD8 naïve, average # of cells","SM1 tumors; Day 21, lymph nodes",11896.39 per 10^6 cells of total tumor
same,"CD8 stem central memory, average # of cells","SM1 tumors; Day 21, lymph nodes",192.89 per 10^6 cells of total tumor
same,"cDC1, average # of cells","SM1 tumors; Day 21, lymph nodes",9395.57 per 10^6 cells of total tumor
same,"cDC2, average # of cells","SM1 tumors; Day 21, lymph nodes",13997.11 per 10^6 cells of total tumor
same,"moDC, average # of cells","SM1 tumors; Day 21, lymph nodes",1788.45 per 10^6 cells of total tumor
same,"CD4+ CRTAM+, average # of cells","SM1 tumors; Day 21, tumors",361.60 per 10^6 cells of total tumor
same,"CD4 central memory, average # of cells","SM1 tumors; Day 21, tumors",19.50 per 10^6 cells of total tumor
same,"CD4 effector memory, average # of cells","SM1 tumors; Day 21, tumors",302.98 per 10^6 cells of total tumor
same,"CD4 naïve, average # of cells","SM1 tumors; Day 21, tumors",186.42 per 10^6 cells of total tumor
same,"CD4 stem central memory, average # of cells","SM1 tumors; Day 21, tumors",3.22 per 10^6 cells of total tumor
same,"CD8+ GRZB+, average # of cells","SM1 tumors; Day 21, tumors",14146.30 per 10^6 cells of total tumor
same,"CD8 central memory, average # of cells","SM1 tumors; Day 21, tumors",25.37 per 10^6 cells of total tumor
same,"CD8 effector memory, average # of cells","SM1 tumors; Day 21, tumors",889.74 per 10^6 cells of total tumor
same,"CD8 naïve, average # of cells","SM1 tumors; Day 21, tumors",81.09 per 10^6 cells of total tumor
same,"CD8 stem central memory, average # of cells","SM1 tumors; Day 21, tumors",1.53 per 10^6 cells of total tumor
same,"cDC1, average # of cells","SM1 tumors; Day 21, tumors",2032.24 per 10^6 cells of total tumor
same,"cDC2, average # of cells","SM1 tumors; Day 21, tumors",12762.45 per 10^6 cells of total tumor
same,"moDC, average # of cells","SM1 tumors; Day 21, tumors",570.99 per 10^6 cells of total tumor
same,"CD4 central memory, average # of cells","SM1 tumors; Day 31, lymph nodes",424.67 per 10^6 cells of total tumor
same,"CD4 effector memory, average # of cells","SM1 tumors; Day 31, lymph nodes",6638.79 per 10^6 cells of total tumor
same,"CD4 naïve, average # of cells","SM1 tumors; Day 31, lymph nodes",30715.03 per 10^6 cells of total tumor
same,"CD4 stem central memory, average # of cells","SM1 tumors; Day 31, lymph nodes",408.72 per 10^6 cells of total tumor
same,"CD8 central memory, average # of cells","SM1 tumors; Day 31, lymph nodes",286.54 per 10^6 cells of total tumor
same,"CD8 effector memory, average # of cells","SM1 tumors; Day 31, lymph nodes",2478.29 per 10^6 cells of total tumor
same,"CD8 naïve, average # of cells","SM1 tumors; Day 31, lymph nodes",12415.41 per 10^6 cells of total tumor
same,"CD8 stem central memory, average # of cells","SM1 tumors; Day 31, lymph nodes",56.84 per 10^6 cells of total tumor
same,"cDC1, average # of cells","SM1 tumors; Day 31, lymph nodes",5781.73 per 10^6 cells of total tumor
same,"cDC2, average # of cells","SM1 tumors; Day 31, lymph nodes",22628.85 per 10^6 cells of total tumor
same,"moDC, average # of cells","SM1 tumors; Day 31, lymph nodes",7315.56 per 10^6 cells of total tumor
same,"CD4+ CRTAM+, average # of cells","SM1 tumors; Day 31, tumors",112.92 per 10^6 cells of total tumor
same,"CD4 central memory, average # of cells","SM1 tumors; Day 31, tumors",28.68 per 10^6 cells of total tumor
same,"CD4 effector memory, average # of cells","SM1 tumors; Day 31, tumors",297.82 per 10^6 cells of total tumor
same,"CD4 naïve, average # of cells","SM1 tumors; Day 31, tumors",401.23 per 10^6 cells of total tumor
same,"CD4 stem central memory, average # of cells","SM1 tumors; Day 31, tumors",6.29 per 10^6 cells of total tumor
same,"CD8+ GRZB+, average # of cells","SM1 tumors; Day 31, tumors",5679.05 per 10^6 cells of total tumor
same,"CD8 central memory, average # of cells","SM1 tumors; Day 31, tumors",26.40 per 10^6 cells of total tumor
same,"CD8 effector memory, average # of cells","SM1 tumors; Day 31, tumors",202.98 per 10^6 cells of total tumor
same,"CD8 naïve, average # of cells","SM1 tumors; Day 31, tumors",223.96 per 10^6 cells of total tumor
same,"CD8 stem central memory, average # of cells","SM1 tumors; Day 31, tumors",3.15 per 10^6 cells of total tumor
same,"cDC1, average # of cells","SM1 tumors; Day 31, tumors",200.82 per 10^6 cells of total tumor
same,"cDC2, average # of cells","SM1 tumors; Day 31, tumors",5753.01 per 10^6 cells of total tumor
same,"moDC, average # of cells","SM1 tumors; Day 31, tumors",1107.62 per 10^6 cells of total tumor
same,intratumoral CD4+T central and effector memory cells,SM1 tumors; L-fuc alone (FIG. 21b),increased
same,tumor suppression in combination with anti-PD1,SM1 tumors; SM1 model,augmented durable suppression
same,"tumor suppression, single agent",SM1 tumors; SM1 model (FIG. 21a right),less tumor suppressive than anti-PD1 alone
same,"myeloid phenotype (M-MDSC vs. PMN-MDSC, moDC)",[1],"enrichment of a monocytic phenotype, including increased moDCs"
